Measurements published in PubChem BioAssay (NCI).
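Assay format: 96-well plates, 48-hour exposure. The concentration for 50% growth inhibition is given as GI50. TGI marks complete inhibition of growth.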 *1 amine or outer side, *2 acyl side, *3 side chain or, on linkers, in order; H or OH if unused. Where a SMILES comes first, the peptide text is derived from it. [ ]: non-standard residue; d: D form. ξ: configuration not given here. X21 = CC[C@@H](C)C(N[*:1])C(=O)[*:2]; ξR = N=C(N)NCCCC(N)C(=O)O; ξI = CCC(C)C(N)C(=O)O; ξL = CC(C)CC(N)C(=O)O; ξK = NCCCCC(N)C(=O)O; ξV = CC(C)C(N)C(=O)O; ξA = CC(N)C(=O)O

Key:
Assay in all cases: growth of human tumour cells (NCI), 48 h
[1] = tested on: MOLT-4 leukemia
[2] = tested on: HS 578T breast
[3] = tested on: NCI-H460 lung
[4] = tested on: SK-MEL-28 melanoma
[5] = tested on: EKVX NSCLC
[6] = tested on: TK-10 renal
[7] = tested on: A498 renal
[8] = tested on: HCT-15 colon
[9] = tested on: UACC-62 melanoma
[10] = tested on: OVCAR-3 ovarian

SMILES	GI50 [1] [µM]	TGI [1] [µM]	GI50 [2] [µM]	TGI [2] [µM]	GI50 [3] [µM]	TGI [3] [µM]	GI50 [4] [µM]	TGI [4] [µM]	GI50 [5] [µM]	TGI [5] [µM]	GI50 [6] [µM]	TGI [6] [µM]	GI50 [7] [µM]	TGI [7] [µM]	GI50 [8] [µM]	TGI [8] [µM]	GI50 [9] [µM]	TGI [9] [µM]	GI50 [10] [µM]	TGI [10] [µM]
CCC(C)C1NC(=O)C(CC(C)C)NC(=O)C(C)NC(=O)C(C(C)C)NC(=O)C(CCCCN)NC(=O)C(CC(C)C)NC(=O)C(C(C)C)NC(=O)[C@H](C)NC(=O)C(C(C)CC)NC(=O)C(CCCN=C(N)N)NC(=O)C(CCCCN)NC(=O)C(CCCN=C(N)N)NC(=O)C(CCCCN)NC(=O)C([C@H](C)CC)NC(=O)C(CCCCN)NC1=O (stereo not given in full) (cyclo(A[ξV][ξL][ξK][ξV][ξA][ξL][ξI][ξK][X21][ξK][ξR][ξK][ξR][ξI]))	0.752	2.82	1.72	4.63	1.57	3.49	1.82	4.34	0.61	2.9	1.62	3.82	1.15	2.82	1.48	3.58	1.26	2.85	1.2	2.87
C[C@H](N)C(=O)N1C[C@H](CCCB(O)O)[C@](N)(C(=O)O)C1	> 100	> 100	> 100	> 100	> 100	> 100	> 100	> 100	> 100	> 100	> 100	> 100	> 100	> 100	> 100	> 100	> 100	> 100	> 100	> 100
C=C1C(=O)O[C@H]2[C@H]1CC/C(COC(=O)c1ccccc1)=C\CC[C@@]1(C)O[C@@H]21	2.14	7.57	2.56	14.8	2.22	6.16	1.74	3.71	1.85	4.46	2.03	3.98	16.8	30.8	0.8	2.3	1.44	3.13	0.482	1.74
CC1(C)CC(Nc2ccc(Nc3ccccc3)cc2)CC(C)(C)N1		53.7		48.8		64		33.8		81.4		48.5		55.3		70.4		28.1		41.8
CN(C)CCCn1c2nc(=O)[nH]c(=O)c-2nc2cc(Cl)c(Cl)cc21	4.35	22.8	30.9	> 100	14.5	> 100	18.9	34	13.8	28.5	4.62	14.1	16.1	30.4	4.03	21.5	4.22	14.9	0.812	6.13
